# Measured values reported in ChEMBL document CHEMBL4680137, “Synthesis and biological evaluation of some novel 1,2,3-triazole hybrids of myrrhanone B isolated from Commiphora mukul gum resin: Identification of potent antiproliferative leads active against prostate cancer cells (PC-3)” (Eur J Med Chem, 2020).
# Experiments:
# U-87 MG = assay: Antiproliferative activity against human U87 cells assessed as reduction in cell viability after 48 hrs by MTT assay; format: functional, cell-based, U-87MG ATCC
# SiHa = assay: Antiproliferative activity against human SiHa cells assessed as reduction in cell viability after 48 hrs by MTT assay; format: functional, cell-based
# [1] = Inhibition of Saccharomyces cerevisiae alpha-glucosidase using p-nitophenyl alpha […]D-glucoside incubated for 45 mins
# A549 = assay: Antiproliferative activity against human A549 cells assessed as reduction in cell viability after 48 hrs by MTT assay; format: functional, cell-based; details: A549, 48 h
# L132 = assay: Cytotoxicity against human L132 cells assessed as reduction in cell viability after 48 hrs by MTT assay; format: cell-based; details: L132, 48 h
# MDA-MB-231 = assay: Antiproliferative activity against human MDA-MB-231 cells assessed as reduction in cell viability after 48 hrs by MTT assay; format: functional, cell-based; details: MDA-MB-231, 48 h
# DU-145 = assay: Antiproliferative activity against human DU-145 cells assessed as reduction in cell viability after 48 hrs by MTT assay; format: functional, cell-based; details: DU-145, 48 h
# [2] = Inhibition of LPS-induced IL-1beta expression in human U-937 cells preincubated for 1 hr followed by LPS addition and measured after 24 hrs by ELISA; format: functional, cell-based
# [3] = Inhibition of LPS-induced TNF-alpha expression in human U-937 cells preincubated for 1 hr followed by LPS addition and measured after 24 hrs by ELISA; format: functional, cell-based
# PC-3 = assay: Antiproliferative activity against human PC3 cells assessed as reduction in cell viability after 48 hrs by MTT assay; format: functional, cell-based; details: PC-3, 48 h
# HT-29 = assay: Antiproliferative activity against human HT-29 cells assessed as reduction in cell viability after 48 hrs by MTT assay; format: functional, cell-based; details: HT-29, 48 h
# Saccharomyces cerevisiae [4] = assay: Potency index, ratio of Myrrhanone-B IC50 to test compound IC50 for inhibition of Saccharomyces cerevisiae alpha-glucosidase
# Saccharomyces cerevisiae [5] = assay: Potency index, ratio of acarbose IC50 to test compound IC50 for inhibition of Saccharomyces cerevisiae alpha-glucosidase
SMILES,IC50 (U-87 MG) [µM],IC50 [1] [µM],IC50 (A549) [µM],IC50 (MDA-MB-231) [µM],IC50 (DU-145) [µM],IC50 [2] [µM],IC50 [3] [µM],IC50 (PC-3) [µM],IC50 (HT-29) [µM],Ratio IC50 (Saccharomyces cerevisiae [4]),Ratio IC50 (Saccharomyces cerevisiae [5]),IC50 (SiHa) [µM],IC50 (L132) [µM]
C/C(=C\CC/C(C)=C/CC[C@@H]1[C@@]2(C)CCC(=O)C(C)(C)[C@H]2CC[C@@]1(C)O)CC/C=C(\C)C(=O)O,,167,> 150,90.5,> 150,,15.6,40.7,56.6,,,96.7,> 150
C/C(=C\CC/C(C)=C/CC[C@@H]1[C@@]2(C)CCC(=O)C(C)(C)[C@H]2CC[C@@]1(C)O)CC/C=C(\C)C(=O)OCc1cn(-c2ccc([N+](=O)[O-])cc2)nn1,,,> 150,,> 150,,,,,60.2,767,,> 150
C/C(=C\CC/C(C)=C/CC[C@@H]1[C@@]2(C)CCC(=O)C(C)(C)[C@H]2CC[C@@]1(C)O)CC/C=C(\C)C(=O)OCc1cn(-c2ccc(F)c(Cl)c2)nn1,,10.1,> 150,,> 150,15.8,7.83,22.9,,,,,> 150
C[C@]12C=CC(=O)C=C1CC[C@@H]1[C@@H]2[C@@H](O)C[C@@]2(C)[C@H]1CC[C@]2(O)C(=O)CO [PREDNISOLONE],,,,,,0.44,0.64,,,,,,
C/C(=C\CC/C(C)=C/CC[C@@H]1[C@@]2(C)CCC(=O)C(C)(C)[C@H]2CC[C@@]1(C)O)CC/C=C(\C)C(=O)OCc1cn(-c2ccccc2)nn1,,43.5,> 150,> 150,95.5,9.87,9.3,,,,,149,> 150
C/C(=C\CC/C(C)=C/CC[C@@H]1[C@@]2(C)CCC(=O)C(C)(C)[C@H]2CC[C@@]1(C)O)CC/C=C(\C)C(=O)OCc1cn(-c2ccccc2Cl)nn1,,106,> 150,> 150,> 150,8.95,9.58,,,,,,> 150
C/C(=C\CC/C(C)=C/CC[C@@H]1[C@@]2(C)CCC(=O)C(C)(C)[C@H]2CC[C@@]1(C)O)CC/C=C(\C)C(=O)OCc1cn(-c2ccccc2[N+](=O)[O-])nn1,,,> 150,,> 150,8.97,9.05,,,60.2,767,,> 150
C/C(=C\CC/C(C)=C/CC[C@@H]1[C@@]2(C)CCC(=O)C(C)(C)[C@H]2CC[C@@]1(C)O)CC/C=C(\C)C(=O)OCc1cn(-c2ccc(Cl)cc2)nn1,,,> 150,,> 150,66.6,9.12,,,,,,> 150
C/C(=C\CC/C(C)=C/CC[C@@H]1[C@@]2(C)CCC(=O)C(C)(C)[C@H]2CC[C@@]1(C)O)CC/C=C(\C)C(=O)OCc1cn(-c2cccc(C)c2)nn1,,13.4,> 150,,137,,,,,,,> 150,> 150

# More lines, main results first:
IC50 (U-87 MG) [µM],IC50 [1] [µM],IC50 (A549) [µM],IC50 (MDA-MB-231) [µM],IC50 (DU-145) [µM],IC50 [2] [µM],IC50 [3] [µM],IC50 (PC-3) [µM],IC50 (HT-29) [µM],Ratio IC50 (Saccharomyces cerevisiae [4]),Ratio IC50 (Saccharomyces cerevisiae [5]),SMILES,IC50 (SiHa) [µM],IC50 (L132) [µM]
91.8,7.91,147,103,103,,,,,,,C/C(=C\CC/C(C)=C/CC[C@@H]1[C@@]2(C)CCC(=O)C(C)(C)[C@H]2CC[C@@]1(C)O)CC/C=C(\C)C(=O)OCc1cn(-c2cccc(Cl)c2)nn1,111,94.2
,,> 150,> 150,> 150,9.06,11.7,,,,,COc1ccccc1-n1cc(COC(=O)/C(C)=C/CC/C(C)=C/CC/C(C)=C/CC[C@@H]2[C@@]3(C)CCC(=O)C(C)(C)[C@H]3CC[C@@]2(C)O)nn1,,> 150
134,2.77,> 150,,> 150,,,24.8,,,,C/C(=C\CC/C(C)=C/CC[C@@H]1[C@@]2(C)CCC(=O)C(C)(C)[C@H]2CC[C@@]1(C)O)CC/C=C(\C)C(=O)OCc1cn(-c2cccc([N+](=O)[O-])c2)nn1,,
,,15.3,> 150,> 150,14.1,8.1,,,,,C/C(=C\CC/C(C)=C/CC[C@@H]1[C@@]2(C)CCC(=O)C(C)(C)[C@H]2CC[C@@]1(C)O)CC/C=C(\C)C(=O)OCc1cn(C[C@@H]2O[C@H](n3ccc(=O)[nH]c3=O)[C@H]3OC(C)(C)O[C@H]32)nn1,,> 150
5.94,,2.58,0.034,3.11,,,5.05,0.082,,,COc1cccc2c1C(=O)c1c(O)c3c(c(O)c1C2=O)C[C@@](O)(C(=O)CO)C[C@@H]3O[C@H]1C[C@H](N)[C@H](O)[C@H](C)O1 [DOXORUBICIN],0.311,0.01
> 150,,35,38,13.8,9.12,8.34,18.9,55.6,,,C/C(=C\CC/C(C)=C/CC[C@@H]1[C@@]2(C)CCC(=O)C(C)(C)[C@H]2CC[C@@]1(C)O)CC/C=C(\C)C(=O)OCc1cn([C@@H]2C[C@@H](n3cc(C)c(=O)[nH]c3=O)O[C@H]2CO)nn1,41.7,115
> 150,,45.1,114,46.1,,,18.9,27.4,,,C#CCOC(=O)/C(C)=C/CC/C(C)=C/CC/C(C)=C/CC[C@@H]1[C@@]2(C)CCC(=O)C(C)(C)[C@H]2CC[C@@]1(C)O,,
> 150,4.12,124,144,> 150,,,,,,,C/C(=C\CC/C(C)=C/CC[C@@H]1[C@@]2(C)CCC(=O)C(C)(C)[C@H]2CC[C@@]1(C)O)CC/C=C(\C)C(=O)OCc1cn(-c2cccc(F)c2)nn1,> 150,
